Tests used:
human recombinant BACE2 = human recombinant BACE2 (Homo sapiens (Human), UniProt Q9Y5Z0); experiment: In vitro enzymatic BACE2 FRET assay; assay type: biochemical; settings: read-out: BACE2 Enzyme IC50
Cathepsin D (CatD) = Cathepsin D (CatD) (Homo sapiens (Human), UniProt P07339); experiment: In vitro enzymatic Cathepsin D (CatD) FRET assay; assay type: biochemical; settings: read-out: Cat D Enzyme IC50
BACE1 [1] = molecular target: T1, BACE1 (Homo sapiens (Human), UniProt P56817); experiment: In vitro BACE1 cell-based assay (Aβ40 in conditioned medium of cells stably expressing APP, HTRF); settings: Aβ40 in conditioned media after 24 h incubation
Target sequence in this assay (P56817 46-501, species assumed): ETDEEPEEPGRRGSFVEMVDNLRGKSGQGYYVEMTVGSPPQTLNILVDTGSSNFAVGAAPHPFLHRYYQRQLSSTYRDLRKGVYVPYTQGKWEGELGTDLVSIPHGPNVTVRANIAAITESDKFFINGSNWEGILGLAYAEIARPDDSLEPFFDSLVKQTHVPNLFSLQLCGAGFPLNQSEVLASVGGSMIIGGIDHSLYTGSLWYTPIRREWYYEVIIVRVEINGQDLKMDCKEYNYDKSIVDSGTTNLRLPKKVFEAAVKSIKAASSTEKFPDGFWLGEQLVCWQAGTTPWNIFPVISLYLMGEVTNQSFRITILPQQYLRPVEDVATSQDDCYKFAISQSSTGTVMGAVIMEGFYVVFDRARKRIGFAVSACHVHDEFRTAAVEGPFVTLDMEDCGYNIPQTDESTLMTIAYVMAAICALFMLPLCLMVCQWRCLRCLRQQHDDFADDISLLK

BACE1 [2] = molecular target: T1, BACE1; experiment: In vitro enzymatic BACE1 FRET assay; assay type: biochemical; settings: read-out: BACE1 Enzyme IC50
Target sequence in this assay (P56817 46-501): as the sequence (P56817 46-501, species assumed) above

Chain of human recombinant BACE2 (Q9Y5Z0 63-518): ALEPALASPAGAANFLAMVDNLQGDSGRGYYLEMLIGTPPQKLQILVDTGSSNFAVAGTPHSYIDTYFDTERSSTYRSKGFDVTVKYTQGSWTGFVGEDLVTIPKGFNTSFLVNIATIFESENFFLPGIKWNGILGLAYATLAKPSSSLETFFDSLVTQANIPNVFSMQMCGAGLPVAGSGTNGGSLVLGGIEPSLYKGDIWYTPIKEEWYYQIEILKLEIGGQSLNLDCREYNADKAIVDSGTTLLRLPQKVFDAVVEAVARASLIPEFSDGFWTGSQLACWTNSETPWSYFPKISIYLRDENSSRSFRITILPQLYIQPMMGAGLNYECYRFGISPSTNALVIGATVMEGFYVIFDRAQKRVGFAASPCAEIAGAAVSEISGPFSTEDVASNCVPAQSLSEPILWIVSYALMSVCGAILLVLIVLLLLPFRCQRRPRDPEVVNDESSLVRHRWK
Chain of Cathepsin D (CatD) (P07339 65-412, species assumed): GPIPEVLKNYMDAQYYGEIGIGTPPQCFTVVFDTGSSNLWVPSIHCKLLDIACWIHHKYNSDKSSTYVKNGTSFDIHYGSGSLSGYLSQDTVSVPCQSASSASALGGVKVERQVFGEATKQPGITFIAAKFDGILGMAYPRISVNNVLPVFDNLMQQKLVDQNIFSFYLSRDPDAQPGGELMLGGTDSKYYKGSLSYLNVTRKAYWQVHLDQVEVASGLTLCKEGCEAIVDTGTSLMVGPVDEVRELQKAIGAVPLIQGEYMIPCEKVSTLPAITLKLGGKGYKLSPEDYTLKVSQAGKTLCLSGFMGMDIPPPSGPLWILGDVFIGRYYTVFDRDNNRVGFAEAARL

SMILES | IC50 (human recombinant BACE2) [nM] | IC50 (Cathepsin D (CatD)) [nM] | IC50 (BACE1 [1]) [nM] | IC50 (BACE1 [2]) [nM]
CC1(C)C(N)=N[C@](CF)(c2cc(/C=C(\F)c3cnc(Cl)cn3)ccc2F)CS1(=O)=O [Example 189, (S,Z)-5-amino-3-(5-(2-(5-chloropyrazin-2-yl)-2-fluorovinyl)-2-fluorophenyl)-3-(fluoromethyl)-6,6-dimethyl-3,6-dihydro-2H-1,4-thiazine 1,1-dioxide] | 59 | 61800 | 2220 | 60
CC1(C)C(N)=N[C@](C)(c2cc(/C=C(\F)c3cnc(Oc4ccccc4)cn3)ccc2F)CS1(=O)=O [Example 211, (R,Z)-5-amino-3-(2-fluoro-5-(2-fluoro-2-(5-phenoxypyrazin-2-yl)vinyl)phenyl)-3,6,6-trimethyl-3,6-dihydro-2H-1,4-thiazine 1,1-dioxide] | 333 | 59500 | 1820 | 349
C[C@]1(c2cc(/C=C(\F)c3cnc(OCC4COC4)cn3)ccc2F)N=C(N)[C@@]2(CF)CC[C@@H]1S2(=O)=O [Example 126, (1R,4R,5S)-2-amino-4-(2-fluoro-5-((Z)-2-fluoro-2-(5-(oxetan-3-ylmethoxy)pyrazin-2-yl)vinyl)phenyl)-1-(fluoromethyl)-4-methyl-8-thia-3-azabicyclo[3.2.1]oct-2-ene 8,8-dioxide] | 141 | 100000 | 457 | 138
C[C@H](O)COc1cnc(/C(F)=C/c2ccc(F)c([C@]3(C)CS(=O)(=O)C(C)(C)C(N)=N3)c2)cn1 [Example 219, (R)-5-amino-3-(2-fluoro-5-((Z)-2-fluoro-2-(5-((S)-2-hydroxypropoxy)pyrazin-2-yl)vinyl)phenyl)-3,6,6-trimethyl-3,6-dihydro-2H-1,4-thiazine 1,1-dioxide] | 377 | 208000 | 142 | 136
CN1C(N)=N[C@](C)(c2cc(/C=C(\F)c3cnc(OCC(F)(F)F)cn3)ccc2F)C2(CC2)S1(=O)=O [Example 163, (8R)-8-(2-fluoro-5-((Z)-2-fluoro-2-(5-(2,2,2-trifluoroethoxy)-2-pyrazinyl)ethenyl)phenyl)-5,8-dimethyl-4-thia-5,7-diazaspiro[2.5]oct-6-en-6-amine 4,4-dioxide] | 2880 | 223000 | 1120 | 133
Cc1cc(C#N)cnc1/C(F)=C/c1cc(F)c(F)c([C@]2(C)CS(=O)(=O)N(C)C(N)=N2)c1 [Example 275, (R,Z)-6-(2-(3-(3-amino-2,5-dimethyl-1,1-dioxido-5,6-dihydro-2H-1,2,4-thiadiazin-5-yl)-4,5-difluorophenyl)-1-fluorovinyl)-5-methylnicotinonitrile] | 9 | 55900 | 14 | 1
CC1(C)C(N)=N[C@](C)(c2cc(/C=C(\F)c3cc4c(cn3)OCCO4)ccc2F)CS1(=O)=O [Example 184, (R,Z)-5-amino-3-(5-(2-(2,3-dihydro-[1,4]dioxino[2,3-c]pyridin-7-yl)-2-fluorovinyl)-2-fluorophenyl)-3,6,6-trimethyl-3,6-dihydro-2H-1,4-thiazine 1,1-dioxide] | 790 | 335000 | 277 | 296
CN1C(N)=N[C@](C)(c2cc(/C=C(\F)c3ccc(C(F)(F)F)cn3)ccc2F)CS1(=O)=O [Example 244, (5R)-5-(2-fluoro-5-((Z)-2-fluoro-2-(5-(trifluoromethyl)-2-pyridinyl)ethenyl)phenyl)-2,5-dimethyl-5,6-dihydro-2H-1,2,4-thiadiazin-3-amine 1,1-dioxide] | 31 | 206000 | 8 | 6
C#C[C@H](C)Oc1cnc(/C(F)=C/c2ccc(F)c([C@]3(CF)CS(=O)(=O)C(C)(C)C(N)=N3)c2)cn1 [Example 195, (S)-5-amino-3-(5-((Z)-2-(5-((S)-but-3-yn-2-yloxy)pyrazin-2-yl)-2-fluorovinyl)-2-fluorophenyl)-3-(fluoromethyl)-6,6-dimethyl-3,6-dihydro-2H-1,4-thiazine 1,1-dioxide] | 523 | 64900 | 188 | 11

— patent publication US11021493B2, “1,4-thiazine dioxide and 1,2,4-thiadiazine dioxide derivatives as beta-secretase inhibitors and methods of use” (AMGEN INC., priority 2016, dated 2021)
